In the NIST ThermoML archive (doi:10.1021/acs.jced.6b00542):

Assay: xn = mol fraction of the nth substance listed
Conditions: for surface tension liquid-gas: 294.5 K, Pendant drop shape; for speed of sound: 100 kPa, Frequency=3 MHz, Sing-around technique in a fixed-path interferometer; for speed of sound / viscosity / mass density: Liquid; for viscosity / mass density: 102 kPa; for viscosity: Concentric cylinders viscometry; for mass density: Vibrating tube method

CCCCCCCCCCCCCCCCC [heptadecane] + CCCCc1ccccc1
Conditions | surface tension liquid-gas [mN/m]
x2 = 0.1662 | 27.6
x2 = 0.3047 | 27.7
x2 = 0.4587 | 28
x2 = 0.6419 | 28.2
x2 = 0.7515 | 28.3
x2 = 0.8742 | 29.2

Conditions | mass density [kg/m3] | speed of sound [m/s] | viscosity [mPa·s]
303.15 K, x2 = 0 | 771.02 | 1330.9 | 3.25
303.15 K, x2 = 0.1662 | 777.94 | 1325.3 | 2.73
303.15 K, x2 = 0.3047 | 784.91 | 1321.4 | 2.35
303.15 K, x2 = 0.4587 | 794.08 | 1316.9 | 1.96
303.15 K, x2 = 0.6419 | 808.08 | 1312.4 | 1.56
303.15 K, x2 = 0.7515 | 818.66 | 1311.3 | 1.35
303.15 K, x2 = 0.8742 | 833.23 | 1311 | 1.13
313.15 K, x2 = 0 | 764.16 | 1294.5 | 2.61
313.15 K, x2 = 0.1662 | 771 | 1289 | 2.23
313.15 K, x2 = 0.3047 | 777.87 | 1285 | 1.94
313.15 K, x2 = 0.4587 | 786.92 | 1280.3 | 1.64
313.15 K, x2 = 0.6419 | 800.73 | 1275.9 | 1.32
313.15 K, x2 = 0.7515 | 811.14 | 1274.1 | 1.15
313.15 K, x2 = 0.8742 | 825.49 | 1273.6 | 0.967
323.15 K, x2 = 0 | 757.3 | 1258.8 | 2.14
323.15 K, x2 = 0.1662 | 764.03 | 1253.3 | 1.85
323.15 K, x2 = 0.3047 | 770.84 | 1249.2 | 1.62
323.15 K, x2 = 0.4587 | 779.75 | 1244.5 | 1.39
323.15 K, x2 = 0.6419 | 793.34 | 1239.7 | 1.14
323.15 K, x2 = 0.7515 | 803.6 | 1237.6 | 1
323.15 K, x2 = 0.8742 | 817.71 | 1236.6 | 0.844
333.15 K, x2 = 0 | 750.45 | 1223.8 | 1.79
333.15 K, x2 = 0.1662 | 757.11 | 1218.1 | 1.56
333.15 K, x2 = 0.3047 | 763.79 | 1214 | 1.38
333.15 K, x2 = 0.4587 | 772.56 | 1209.1 | 1.2
333.15 K, x2 = 0.6419 | 785.94 | 1204 | 0.981
333.15 K, x2 = 0.7515 | 796.02 | 1201.6 | 0.865
333.15 K, x2 = 0.8742 | 809.9 | 1200.1 | 0.747
343.15 K, x2 = 0 | 743.7 | – | 1.52
343.15 K, x2 = 0.1662 | 750.12 | – | 1.33
343.15 K, x2 = 0.3047 | 756.65 | – | 1.19
343.15 K, x2 = 0.4587 | 765.4 | – | 1.04
343.15 K, x2 = 0.6419 | 778.47 | – | 0.861
343.15 K, x2 = 0.7515 | 788.4 | – | 0.768
343.15 K, x2 = 0.8742 | 802 | – | 0.671
353.15 K, x2 = 0 | 736.8 | – | 1.3
353.15 K, x2 = 0.1662 | 743.1 | – | 1.16
353.15 K, x2 = 0.3047 | 749.6 | – | 1.04
353.15 K, x2 = 0.4587 | 758.1 | – | 0.906
353.15 K, x2 = 0.6419 | 771 | – | 0.763
353.15 K, x2 = 0.7515 | 780.7 | – | 0.684
353.15 K, x2 = 0.8742 | 794.1 | – | 0.602
363.15 K, x2 = 0 | 729.8 | – | 1.14
363.15 K, x2 = 0.1662 | 736.1 | – | 1.01
363.15 K, x2 = 0.3047 | 742.4 | – | 0.909
363.15 K, x2 = 0.4587 | 750.8 | – | 0.805
363.15 K, x2 = 0.6419 | 763.4 | – | 0.687
363.15 K, x2 = 0.7515 | 773 | – | 0.623
363.15 K, x2 = 0.8742 | 786.1 | – | 0.546
373.15 K, x2 = 0 | 723 | – | 1
373.15 K, x2 = 0.1662 | 729 | – | 0.891
373.15 K, x2 = 0.3047 | 735.2 | – | 0.811
373.15 K, x2 = 0.4587 | 743.5 | – | 0.725
373.15 K, x2 = 0.6419 | 755.8 | – | 0.628
373.15 K, x2 = 0.7515 | 765.2 | – | 0.567
373.15 K, x2 = 0.8742 | 778.1 | – | 0.499
